How the values were obtained:
colon cancer cells = test: Protein expression level changes after treatment with FAK inhibitors (in-solution digestion, protein identification, expression ratios, FIG. 14); format: cell-based, human; design: dose or concentration left out as unconfirmed; conditions: 2 hours (FIG. 14)
Procedure: A human colon cancer cell line, HCT-116, was cultured using an RPMI-1640 medium containing 10% (v/v) heat-inactivated FBS and 1% (v/v) penicillin/streptomycin in a 60 mm plastic culture plate (Corning Life Science, Acton, Mass., USA) until its cell density reached 2×10^6 cells/cm^2. The culture was performed in a humidified incubator of 5% CO2 at 37° C. The cells were starved for 24 hours and washed with serum-free medium. FGF signaling was amplified by adding 10 ng/mL of EGF, IGF, PMA, and PDGF, followed by further incubation for 2 hours. Thereafter, the cells were harvested and collected by centrifugation at a speed of 300 g for 5 minutes. Cell membranes were disrupted using a sonicator, and centrifuged at a speed of 13,000 g for 30 minutes to collect lysed intracellular proteins. Further, to compare the amounts of expressed FAK-binding proteins by using defactinib (VS-6063) and PF-573228, which are FAK inhibitors, independently or simultaneously, normal intestinal epidermal cells and colon cancer cells were each treated with FAK inhibitors at three different final concentrations […], 1 mM, and 10 mM (2 hours), and then cells were collected and subjected to in-solution digestion to isolate and identify the proteins.

[1] = test system: colon cancer cell line HCT-116; test: Western blotting / immunoprecipitation of FAK and FAK-bound protein complexes after treatment with FAK signaling substances; format: cell-based, human; conditions: HCT-116, 10 ng/mL, 2 hours, compared with control group not treated with the signaling substances (FIG. 7)
Procedure: A human colon cancer cell line, HCT-116, was cultured using an RPMI-1640 medium containing 10% (v/v) heat-inactivated FBS and 1% (v/v) penicillin/streptomycin in a 60 mm plastic culture plate (Corning Life Science, Acton, Mass., USA) until its cell density reached 2×10^6 cells/cm^2. The culture was performed in a humidified incubator of 5% CO2 at 37° C. The cells were starved for 24 hours and washed with serum-free medium. FGF signaling was amplified by adding 10 ng/mL of EGF, IGF, PMA, and PDGF, followed by further incubation for 2 hours. Thereafter, the cells were harvested and collected by centrifugation at a speed of 300 g for 5 minutes. Cell membranes were disrupted using a sonicator, and centrifuged at a speed of 13,000 g for 30 minutes to collect lysed intracellular proteins. Further, to compare the amounts of expressed FAK-binding proteins by using defactinib (VS-6063) and PF-573228, which are FAK inhibitors, independently or simultaneously, normal intestinal epidermal cells and colon cancer cells were each treated with FAK inhibitors at three different final concentrations of 0.1 mM, 1 mM, and 10 mM (2 hours), and then cells were collected and subjected to in-solution digestion to isolate and identify the proteins.
The concentrations of the collected proteins were determined using a bicinchoninic acid (BCA) protein assay kit (Thermo Fisher Scientific, Waltham, Mass., USA), and the remaining samples were separated by 10% SDS-PAGE (sodium dodecyl sulfate-polyacrylamide gel electrophoresis), and transferred to a nitrocellulose membrane (Pall Corporation, Pensacola, Fla., USA) to perform Western blotting. The membrane was blocked with PBS containing 0.2% TWEEN 20 and 5% non-fat dry milk for about 2 hours, and blotting was performed using anti-phospho-FAK (1:1000) antibody and anti-β-actin (1:5000) antibody overnight. HRP-conjugated goat anti-rabbit IgG diluted 1:5000 was used as a secondary antibody, and fluorescence images were scanned using an Ez-capture MG (ATTO, NY, USA) instrument. For IP, 1.5 mg of the cell lysate was prepared and incubated overnight with 20 μL of agarose beads preblocked (at 4° C. for 2 hours) with PBS containing 1% bovine serum albumin (BSA), wherein 10 μL of FAK antibody (1:500) was immobilized to the agarose beads. To remove nonspecific binding, the beads were washed with 600 μL of PBS containing 0.1% TWEEN 20 twice, and FAK protein and proteins bound thereto were crosslinked using 2 mM of dithiobis(succinimidyl propionate) (DSP) and dithiobismaleimidoethane (DTME). The crosslinking agents were dissolved in 20 mM DMSO and diluted with PBS (pH 7.4), and then used in the reaction. Washing was performed five times using 600 μL of a 0.1% solution of PBS-Tween 20 and further performed using PBS twice. […]

Row | Molecule | complexes of the FAK protein and the proteins specifically bound thereto [1] | further results
1 | CS(=O)(=O)c1cccc(CNc2nc(Nc3ccc4c(c3)CCC(=O)N4)ncc2C(F)(F)F)c1 [PF-573228] |  | ELAVL1 expression level (colon cancer cells): statistically significant reduction; SYNE1 expression level (colon cancer cells): statistically significant reduction; ZYX expression level (colon cancer cells): statistically significant reduction; ARFGEF expression level (colon cancer cells; reduction only with PF-573228): significant reduction
2 | CCCCCCCCCCCCCC(=O)O[C@@H]1[C@@H](C)[C@@]2(O)[C@@H](C=C(CO)C[C@]3(O)C(=O)C(C)=C[C@@H]23)[C@@H]2C(C)(C)[C@]12OC(C)=O [PMA, phorbol 12-myristate 13-acetate] | increased two-fold or more | 
3 | hIGF-1: human insulin-like growth factor-1, FAK signaling substance | increased two-fold or more | 
4 | PDGF | increased two-fold or more | 
5 | hEGF: human epidermal growth factor, FAK signaling substance | increased two-fold or more | 
